Results reported in BigSolDB 2.1.

Nc1cncc(Cl)n1
solubility (mole fraction)
Details	in DMF	in acetone	in acetonitrile	in ethanol	in ethylene glycol	in isopropanol	in methanol	in n-propanol	in propylene glycol	in water
278.15 K	0.00915	0.0117	0.00984	0.00159	0.000717	0.00421	0.00114	0.00494	0.000917	3.62e-05
283.15 K	0.0111	0.0141	0.0119	0.0019	0.000905	0.00503	0.00135	0.00588	0.00115	4.42e-05
288.15 K	0.0135	0.0167	0.0143	0.00226	0.00113	0.00608	0.00164	0.00709	0.00139	5.21e-05
293.15 K	0.0162	0.0198	0.0172	0.00272	0.00141	0.00737	0.00196	0.00858	0.00171	6.29e-05
298.15 K	0.0194	0.0231	0.0209	0.00323	0.00172	0.00874	0.00244	0.0105	0.00204	7.43e-05
303.15 K	0.023	0.0269	0.0248	0.00384	0.00204	0.0104	0.00293	0.0127	0.00237	8.97e-05
308.15 K	0.0271	0.0314	0.0295	0.00453	0.00239	0.0122	0.00347	0.0152	0.00281	0.000105
313.15 K	0.0322	0.0371	0.0352	0.0053	0.00281	0.0146	0.00415	0.0181	0.00327	0.000123
318.15 K	0.0378	0.0431	0.041	0.00624	0.00325	0.017	0.00489	0.0211	0.00379	0.000143
323.15 K	0.0442	0.0505	0.0488	0.00756	0.00377	0.0198	0.00575	0.0246	0.00448	0.000168
